Results on 3 compounds are retold here after ChEMBL document CHEMBL1201862, “PubChem BioAssay data set” (2004).

Active and inactive are the calls of the source.

Holding throughout (format): functional
Test [1] concerns the target T1, Apoptotic protease-activating factor 1 (Homo sapiens, UniProt O14727).
T1 sequence (O14727 whole entry): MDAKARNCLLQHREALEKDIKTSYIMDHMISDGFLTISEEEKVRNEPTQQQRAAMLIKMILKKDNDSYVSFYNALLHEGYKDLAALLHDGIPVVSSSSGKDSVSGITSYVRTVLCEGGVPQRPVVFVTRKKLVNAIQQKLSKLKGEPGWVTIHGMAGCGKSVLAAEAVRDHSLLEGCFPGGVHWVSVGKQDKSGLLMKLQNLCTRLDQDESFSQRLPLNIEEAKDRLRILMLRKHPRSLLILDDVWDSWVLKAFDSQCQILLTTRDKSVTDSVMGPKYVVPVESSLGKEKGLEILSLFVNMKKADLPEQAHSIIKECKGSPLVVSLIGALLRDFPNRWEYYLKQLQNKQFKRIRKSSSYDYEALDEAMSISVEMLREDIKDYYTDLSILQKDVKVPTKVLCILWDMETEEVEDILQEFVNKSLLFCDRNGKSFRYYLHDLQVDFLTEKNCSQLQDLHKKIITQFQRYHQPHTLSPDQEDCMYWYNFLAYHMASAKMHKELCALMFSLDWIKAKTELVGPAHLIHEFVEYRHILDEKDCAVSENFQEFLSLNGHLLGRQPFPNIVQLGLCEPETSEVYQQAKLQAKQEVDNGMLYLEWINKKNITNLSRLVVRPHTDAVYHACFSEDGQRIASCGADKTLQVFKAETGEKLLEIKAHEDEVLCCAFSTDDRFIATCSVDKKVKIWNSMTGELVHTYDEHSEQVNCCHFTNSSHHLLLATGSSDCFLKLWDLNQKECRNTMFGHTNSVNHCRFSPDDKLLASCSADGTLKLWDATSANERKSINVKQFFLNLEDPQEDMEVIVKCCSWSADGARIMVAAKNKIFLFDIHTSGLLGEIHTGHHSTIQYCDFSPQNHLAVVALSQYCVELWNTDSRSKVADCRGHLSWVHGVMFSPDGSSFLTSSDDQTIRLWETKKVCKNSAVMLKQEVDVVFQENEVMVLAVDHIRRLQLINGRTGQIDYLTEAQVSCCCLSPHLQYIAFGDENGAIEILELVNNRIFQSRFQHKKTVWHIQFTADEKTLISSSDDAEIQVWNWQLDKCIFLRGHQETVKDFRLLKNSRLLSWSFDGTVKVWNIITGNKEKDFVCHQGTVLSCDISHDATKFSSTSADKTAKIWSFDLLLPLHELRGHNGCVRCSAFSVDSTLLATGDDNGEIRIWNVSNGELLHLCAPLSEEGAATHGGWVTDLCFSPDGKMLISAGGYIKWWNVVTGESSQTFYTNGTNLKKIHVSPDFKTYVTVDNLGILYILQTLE

The target in test [2] is Casein kinase I isoform gamma-1 (Homo sapiens, UniProt Q9HCP0).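 Further: measured as the CSNK1G1 member of a kinome profiling panel.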
In test [3] the target is Cell division cycle 7-related protein kinase (Homo sapiens, UniProt O00311).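 Further: value obtained from a kinome-wide kinase panel.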
In test [4] the target is Protein kinase C iota type (Homo sapiens, UniProt P41743).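 Further: measured within a kinome-wide kinase panel, PRKCI as panel member.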
Test [5] concerns the target Tyrosine-protein kinase Srms (Homo sapiens, UniProt Q9H3Y6).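 Further: SRMS measured as one member of a kinome-wide kinase profiling panel.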
Test [6] has as its target Serine/threonine-protein kinase PLK4 (Homo sapiens, UniProt O00444).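 Further: PLK4 measured as one member of a kinome-wide kinase profiling panel.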
Test [7] deals with STE20-like serine/threonine-protein kinase (Homo sapiens, UniProt Q9H2G2).
For test [8], the target named is Serine/threonine-protein kinase PLK3 (Homo sapiens, UniProt Q9H4B4).
Test [9] concerns the target Tyrosine-protein kinase FRK (Homo sapiens, UniProt P42685).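 Further: FRK tested as one member of a kinome panel.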
Test [10] deals with Protein kinase C theta type (Homo sapiens, UniProt Q04759). Briefly: Navigating the Kinome. Panel member name: PRKCQ.
Chain of Protein kinase C theta type (Q04759 whole entry): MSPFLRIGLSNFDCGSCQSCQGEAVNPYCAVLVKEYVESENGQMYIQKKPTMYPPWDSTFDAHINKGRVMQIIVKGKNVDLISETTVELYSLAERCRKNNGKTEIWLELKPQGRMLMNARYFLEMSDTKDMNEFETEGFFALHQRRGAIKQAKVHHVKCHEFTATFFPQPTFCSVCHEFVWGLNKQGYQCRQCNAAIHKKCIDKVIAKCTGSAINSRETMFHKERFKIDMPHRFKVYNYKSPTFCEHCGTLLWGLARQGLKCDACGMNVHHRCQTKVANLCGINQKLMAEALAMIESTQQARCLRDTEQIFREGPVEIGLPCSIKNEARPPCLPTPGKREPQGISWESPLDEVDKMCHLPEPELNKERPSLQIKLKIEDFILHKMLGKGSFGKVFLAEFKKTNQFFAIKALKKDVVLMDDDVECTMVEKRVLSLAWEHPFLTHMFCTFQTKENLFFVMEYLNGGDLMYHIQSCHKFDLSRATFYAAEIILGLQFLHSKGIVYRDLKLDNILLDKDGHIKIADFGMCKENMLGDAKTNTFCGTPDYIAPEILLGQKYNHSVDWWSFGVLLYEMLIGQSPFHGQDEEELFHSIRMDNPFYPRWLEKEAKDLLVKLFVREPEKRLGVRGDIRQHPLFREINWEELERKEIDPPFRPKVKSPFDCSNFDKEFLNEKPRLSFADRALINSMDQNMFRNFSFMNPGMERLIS

Chain of Protein kinase C iota type (P41743 whole entry): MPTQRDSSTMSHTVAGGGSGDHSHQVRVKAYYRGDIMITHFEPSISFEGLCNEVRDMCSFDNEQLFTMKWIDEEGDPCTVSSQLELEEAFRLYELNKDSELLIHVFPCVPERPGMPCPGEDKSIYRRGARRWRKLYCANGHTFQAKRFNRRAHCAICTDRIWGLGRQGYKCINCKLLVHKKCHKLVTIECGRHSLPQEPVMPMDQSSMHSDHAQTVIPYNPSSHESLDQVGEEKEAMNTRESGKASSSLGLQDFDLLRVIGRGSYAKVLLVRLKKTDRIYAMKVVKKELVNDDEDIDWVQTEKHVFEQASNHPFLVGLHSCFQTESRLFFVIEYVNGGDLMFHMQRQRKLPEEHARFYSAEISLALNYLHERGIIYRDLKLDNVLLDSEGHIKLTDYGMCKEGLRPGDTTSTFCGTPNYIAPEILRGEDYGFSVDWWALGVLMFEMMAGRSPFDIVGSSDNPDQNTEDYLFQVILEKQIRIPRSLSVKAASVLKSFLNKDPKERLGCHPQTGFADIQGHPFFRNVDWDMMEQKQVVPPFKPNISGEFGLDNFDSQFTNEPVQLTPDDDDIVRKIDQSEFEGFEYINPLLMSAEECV
Chain of Serine/threonine-protein kinase PLK4 (O00444 whole entry): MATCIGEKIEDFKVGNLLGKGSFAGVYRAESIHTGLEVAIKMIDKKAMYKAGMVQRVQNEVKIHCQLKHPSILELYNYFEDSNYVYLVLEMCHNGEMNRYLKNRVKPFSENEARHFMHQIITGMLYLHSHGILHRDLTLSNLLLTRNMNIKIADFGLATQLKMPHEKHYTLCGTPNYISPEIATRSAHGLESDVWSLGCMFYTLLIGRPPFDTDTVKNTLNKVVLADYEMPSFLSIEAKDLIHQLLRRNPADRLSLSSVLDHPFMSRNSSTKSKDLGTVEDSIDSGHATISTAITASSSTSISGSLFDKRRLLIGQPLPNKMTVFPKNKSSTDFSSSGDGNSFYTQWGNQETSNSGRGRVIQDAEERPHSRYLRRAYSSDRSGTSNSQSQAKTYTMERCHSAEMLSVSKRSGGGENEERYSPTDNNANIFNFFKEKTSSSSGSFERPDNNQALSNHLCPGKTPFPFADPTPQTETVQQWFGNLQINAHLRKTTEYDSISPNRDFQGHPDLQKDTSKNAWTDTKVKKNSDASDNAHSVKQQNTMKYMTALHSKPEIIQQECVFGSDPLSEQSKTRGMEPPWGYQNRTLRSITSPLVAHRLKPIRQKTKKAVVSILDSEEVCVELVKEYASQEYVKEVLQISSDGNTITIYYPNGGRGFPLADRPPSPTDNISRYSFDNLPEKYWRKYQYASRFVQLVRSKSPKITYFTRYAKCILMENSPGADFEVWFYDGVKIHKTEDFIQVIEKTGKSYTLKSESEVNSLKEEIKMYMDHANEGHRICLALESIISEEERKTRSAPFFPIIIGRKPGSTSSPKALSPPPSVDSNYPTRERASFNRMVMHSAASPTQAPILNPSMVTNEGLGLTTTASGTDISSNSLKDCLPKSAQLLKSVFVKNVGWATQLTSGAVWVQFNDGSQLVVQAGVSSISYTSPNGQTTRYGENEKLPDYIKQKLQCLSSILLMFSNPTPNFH
Chain of STE20-like serine/threonine-protein kinase (Q9H2G2 whole entry): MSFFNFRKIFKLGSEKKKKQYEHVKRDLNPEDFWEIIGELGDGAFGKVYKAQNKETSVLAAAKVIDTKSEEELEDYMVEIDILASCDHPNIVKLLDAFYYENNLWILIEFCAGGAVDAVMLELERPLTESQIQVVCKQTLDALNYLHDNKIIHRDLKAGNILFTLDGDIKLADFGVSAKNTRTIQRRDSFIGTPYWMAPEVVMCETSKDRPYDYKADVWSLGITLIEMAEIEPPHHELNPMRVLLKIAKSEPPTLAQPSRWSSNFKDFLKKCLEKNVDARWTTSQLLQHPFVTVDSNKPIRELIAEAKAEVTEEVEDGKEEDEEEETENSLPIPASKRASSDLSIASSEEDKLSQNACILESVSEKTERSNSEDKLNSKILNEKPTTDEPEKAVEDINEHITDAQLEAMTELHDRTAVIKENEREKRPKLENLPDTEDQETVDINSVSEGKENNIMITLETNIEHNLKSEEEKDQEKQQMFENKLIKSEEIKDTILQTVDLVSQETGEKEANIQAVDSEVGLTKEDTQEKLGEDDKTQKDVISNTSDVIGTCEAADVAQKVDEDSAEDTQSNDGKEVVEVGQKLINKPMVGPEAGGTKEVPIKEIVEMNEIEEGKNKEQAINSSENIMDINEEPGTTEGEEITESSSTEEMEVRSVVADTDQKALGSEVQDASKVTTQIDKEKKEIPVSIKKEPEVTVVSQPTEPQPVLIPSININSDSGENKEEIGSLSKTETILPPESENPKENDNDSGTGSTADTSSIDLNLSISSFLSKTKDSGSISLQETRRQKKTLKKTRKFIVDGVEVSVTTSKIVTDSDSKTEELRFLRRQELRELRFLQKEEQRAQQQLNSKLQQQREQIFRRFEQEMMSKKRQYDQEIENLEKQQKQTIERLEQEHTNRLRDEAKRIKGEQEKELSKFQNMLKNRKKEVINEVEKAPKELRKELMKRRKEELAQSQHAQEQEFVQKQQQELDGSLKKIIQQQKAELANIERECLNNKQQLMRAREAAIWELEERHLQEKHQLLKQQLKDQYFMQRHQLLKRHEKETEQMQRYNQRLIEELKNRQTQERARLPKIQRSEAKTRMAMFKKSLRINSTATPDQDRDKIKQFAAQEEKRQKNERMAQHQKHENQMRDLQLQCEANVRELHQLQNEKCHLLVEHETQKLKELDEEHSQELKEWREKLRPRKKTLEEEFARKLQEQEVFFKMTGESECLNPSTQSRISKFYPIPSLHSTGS
Chain of Casein kinase I isoform gamma-1 (Q9HCP0 whole entry, canonical isoform): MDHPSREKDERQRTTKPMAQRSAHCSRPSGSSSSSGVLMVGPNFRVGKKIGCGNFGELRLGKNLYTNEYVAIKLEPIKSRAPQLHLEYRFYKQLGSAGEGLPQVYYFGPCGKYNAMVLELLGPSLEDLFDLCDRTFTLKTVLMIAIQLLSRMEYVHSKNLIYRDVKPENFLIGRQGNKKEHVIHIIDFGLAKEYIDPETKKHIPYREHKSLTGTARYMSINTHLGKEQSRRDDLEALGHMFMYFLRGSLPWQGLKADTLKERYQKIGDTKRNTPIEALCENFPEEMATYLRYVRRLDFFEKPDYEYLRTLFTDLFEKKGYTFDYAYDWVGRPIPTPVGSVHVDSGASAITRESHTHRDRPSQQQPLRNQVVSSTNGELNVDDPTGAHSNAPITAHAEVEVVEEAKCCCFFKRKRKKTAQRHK
Chain of Cell division cycle 7-related protein kinase (O00311 whole entry): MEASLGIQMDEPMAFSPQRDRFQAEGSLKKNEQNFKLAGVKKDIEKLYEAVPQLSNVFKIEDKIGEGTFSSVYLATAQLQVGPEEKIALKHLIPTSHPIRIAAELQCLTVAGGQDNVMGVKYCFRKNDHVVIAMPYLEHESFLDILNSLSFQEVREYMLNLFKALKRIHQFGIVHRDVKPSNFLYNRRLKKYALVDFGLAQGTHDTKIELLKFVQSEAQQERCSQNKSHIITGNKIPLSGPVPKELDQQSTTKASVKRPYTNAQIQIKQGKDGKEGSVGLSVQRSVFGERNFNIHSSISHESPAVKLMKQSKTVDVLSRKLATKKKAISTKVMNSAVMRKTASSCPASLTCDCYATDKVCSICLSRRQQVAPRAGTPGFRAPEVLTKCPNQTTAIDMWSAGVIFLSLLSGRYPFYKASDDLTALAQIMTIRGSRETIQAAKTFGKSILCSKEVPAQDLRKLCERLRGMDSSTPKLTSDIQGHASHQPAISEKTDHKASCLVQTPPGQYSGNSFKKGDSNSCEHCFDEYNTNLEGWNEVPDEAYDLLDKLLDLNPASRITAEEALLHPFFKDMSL
Chain of Tyrosine-protein kinase FRK (P42685 whole entry): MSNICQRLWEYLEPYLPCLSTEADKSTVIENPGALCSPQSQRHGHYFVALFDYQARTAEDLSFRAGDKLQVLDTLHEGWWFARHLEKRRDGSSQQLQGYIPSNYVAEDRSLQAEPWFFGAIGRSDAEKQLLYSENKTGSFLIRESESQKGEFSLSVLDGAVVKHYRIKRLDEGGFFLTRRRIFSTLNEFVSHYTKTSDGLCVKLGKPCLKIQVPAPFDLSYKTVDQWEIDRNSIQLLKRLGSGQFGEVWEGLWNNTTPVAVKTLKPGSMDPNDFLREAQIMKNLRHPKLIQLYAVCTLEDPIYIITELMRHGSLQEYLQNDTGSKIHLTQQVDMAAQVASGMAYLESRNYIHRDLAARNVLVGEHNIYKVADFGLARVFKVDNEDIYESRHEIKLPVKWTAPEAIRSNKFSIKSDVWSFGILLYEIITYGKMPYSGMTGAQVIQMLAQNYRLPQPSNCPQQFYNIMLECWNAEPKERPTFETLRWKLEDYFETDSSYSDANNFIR

In the case of `COc1ccc(-n2c(NC(=O)c3ccco3)c(C#N)c3nc4ccccc4nc32)cc1`, the IC50 in test [1] is 12600 nM (active).
Regarding `Cc1n[nH]c2ccc(-c3cncc(OCC(N)Cc4ccc(Cl)c(Cl)c4)c3)cc12` (stereo not given), the Ki in [2] is 126 nM (active); in test [3], 12.6 nM (active); in test [4], 1000 nM (active); in test [5], > 1580 nM (inactive); in test [6] it was 1260 nM (active); in test [7], 1580 nM (active). Also, the results for the Ki in test [8] and in test [9] were > 7940 nM (inactive) and > 2510 nM (inactive), respectively.
As to `[2H]C([2H])([2H])Oc1cccc(C(C)NC(=O)c2sc(-c3ccncc3)nc2C)c1` (stereo not given), the Ki in test [10] was > 2510 nM (inactive).

One may read the IC50 as the point on the concentration scale where inhibition reaches its midpoint. A word on the Ki: it is a dissociation constant, usually derived from enzyme kinetics or from competition with a known ligand.
